Patent US4232150A, “Oligosaccharide precursors to substituted O-α-D and O-β-D-multigalactopyranosyl and glucopyranosyl 1→4 and 1→6 galactopyranosyl 1→6α-D-glucopyranoses” (American Cyanamid Company, priority 1979, dated 1980)
Counter-ions that a name gives are not always drawn.

Key:
[1] = system: hereditary angioneurotic edema; conditions: in vivo; cited from earlier work
human serum complement = conditions: in vitro and in vivo; cited from earlier work
complement system = conditions: cited from earlier work
activated human C1 = biological target: T1, activated human C1 (Homo sapiens, UniProt P09871); test: Test Code 026 (C1 inhibitor); type: biochemical; conditions: serial twofold dilution assay; higher well number indicates higher activity
T1 construct: functional test of fluid-phase human C2 destruction in presence of C4
Excerpt: (§1) An active inhibitor protects C2 from C1 and C4; (ii) Test Cod3 035 (3-C9 inhibitor)--This test determines the ability of the late components of human complement (C3-C9) to lyse EAC 142 in the presence of appropriate dilutions of the test compound. An active inhibitor protects EAC 142 from lysis by human C3-C9; (iii) Test Code 036 (C-Shunt inhibitor)--In this test human erythrocytes rendered fragile are lysed in autologous serum via the shunt pathway activated by cobra venom factor in the presence of appropriate dilutions of the test compound. Inhibition of the shunt pathway results in failure of lysis; (iv) Forssman Vasculitis Test--Here, the well known complement dependent lesion, Forssman vasculitis, is produced in guinea pigs by intradermal injection of rabbit anti-Forssman antiserum. The lesion is measured in terms of diameter, edema and hemorrhage and the extent to which a combined index of these is inhibited by prior intraperitoneal injection of the test compound at 200 mg/kg is then reported, unless otherwise stated; (v) Forssman Shock Test--Lethal shock is produced in guinea pigs by an i.v. injection of anti-Forssman antiserum and the harmonic mean death time of treated guinea pigs is compared with that of simultaneous controls; (vi) Complement Level Reduction Test--In this test, the above dosed guinea pigs, or others, are bled for serum and the complement level is determined in undiluted serum by the capillary tube method of U.S. Pat. No. 3,876,376 and compared to undosed control guinea pigs; (vii) Cap 50 Test--Here, appropriate amounts of the test compound are added to a pool of guinea pig serum in vitro, after which the undiluted serum capillary tube assay referred to above is run. The concentration of compound inhibiting 50% is reported;
(§2) **Activity in wells, a serial dilution assay; higher well number indicate
(§3) higher activity. The serial dilutions are twofold

[2] = system: late components of human complement (C3-C9); test: Test Code 035 (C3-C9 inhibitor; C-Late), lysis of EAC 142; type: cell-based; conditions: serial twofold dilution assay; higher well number indicates higher activity
Excerpt: as §1, §2, §3

[3] = system: shunt pathway activated by cobra venom factor; test: Test Code 036 (C-Shunt inhibitor), lysis of human erythrocytes by cobra venom factor; type: cell-based; conditions: serial twofold dilution assay; higher well number indicates higher activity
Excerpt: as §1, §2, §3

T1 sequence (P09871 16-688): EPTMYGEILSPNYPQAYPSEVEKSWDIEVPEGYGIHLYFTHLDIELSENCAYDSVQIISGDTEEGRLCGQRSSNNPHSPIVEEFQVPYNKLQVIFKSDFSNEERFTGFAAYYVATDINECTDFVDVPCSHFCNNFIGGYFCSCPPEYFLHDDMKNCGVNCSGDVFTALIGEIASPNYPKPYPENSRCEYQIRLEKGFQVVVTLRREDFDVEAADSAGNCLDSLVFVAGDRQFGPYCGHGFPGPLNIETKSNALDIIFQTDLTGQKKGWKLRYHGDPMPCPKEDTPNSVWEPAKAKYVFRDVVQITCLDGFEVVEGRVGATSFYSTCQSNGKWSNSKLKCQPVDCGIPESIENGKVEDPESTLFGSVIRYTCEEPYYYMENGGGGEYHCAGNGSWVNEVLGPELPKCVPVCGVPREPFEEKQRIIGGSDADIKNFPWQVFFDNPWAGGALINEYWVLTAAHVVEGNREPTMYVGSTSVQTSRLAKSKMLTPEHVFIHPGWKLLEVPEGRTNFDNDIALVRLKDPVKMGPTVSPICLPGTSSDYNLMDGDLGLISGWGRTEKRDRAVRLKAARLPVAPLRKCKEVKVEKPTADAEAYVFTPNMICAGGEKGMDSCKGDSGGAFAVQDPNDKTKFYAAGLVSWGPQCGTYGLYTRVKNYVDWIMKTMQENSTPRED
T1 sequence (P00736 18-705 partner): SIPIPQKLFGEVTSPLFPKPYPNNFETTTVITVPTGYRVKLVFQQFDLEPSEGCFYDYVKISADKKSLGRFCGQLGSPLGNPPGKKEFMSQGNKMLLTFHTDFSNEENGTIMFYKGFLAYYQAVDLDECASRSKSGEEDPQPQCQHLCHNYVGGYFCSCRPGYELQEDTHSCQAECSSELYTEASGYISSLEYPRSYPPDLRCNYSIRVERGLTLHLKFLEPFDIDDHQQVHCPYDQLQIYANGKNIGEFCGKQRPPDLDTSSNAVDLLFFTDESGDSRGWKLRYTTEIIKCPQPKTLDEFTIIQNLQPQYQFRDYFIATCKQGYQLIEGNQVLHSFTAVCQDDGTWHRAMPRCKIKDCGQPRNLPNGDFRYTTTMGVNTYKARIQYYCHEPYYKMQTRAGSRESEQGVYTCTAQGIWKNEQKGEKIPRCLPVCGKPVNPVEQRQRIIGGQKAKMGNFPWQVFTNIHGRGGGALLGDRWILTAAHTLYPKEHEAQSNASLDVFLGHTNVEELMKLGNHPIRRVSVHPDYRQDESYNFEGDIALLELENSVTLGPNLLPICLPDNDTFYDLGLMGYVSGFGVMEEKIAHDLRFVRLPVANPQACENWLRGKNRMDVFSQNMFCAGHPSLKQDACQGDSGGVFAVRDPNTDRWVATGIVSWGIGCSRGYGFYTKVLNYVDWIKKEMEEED
T1 sequence (P02745 23-245 partner): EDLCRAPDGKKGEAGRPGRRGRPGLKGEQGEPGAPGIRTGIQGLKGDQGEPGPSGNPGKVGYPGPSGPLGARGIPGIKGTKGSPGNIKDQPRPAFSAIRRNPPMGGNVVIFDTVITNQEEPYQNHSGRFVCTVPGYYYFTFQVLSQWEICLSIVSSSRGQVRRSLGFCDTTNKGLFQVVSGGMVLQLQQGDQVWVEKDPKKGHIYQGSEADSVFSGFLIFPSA
T1 sequence (P02746 28-253 partner): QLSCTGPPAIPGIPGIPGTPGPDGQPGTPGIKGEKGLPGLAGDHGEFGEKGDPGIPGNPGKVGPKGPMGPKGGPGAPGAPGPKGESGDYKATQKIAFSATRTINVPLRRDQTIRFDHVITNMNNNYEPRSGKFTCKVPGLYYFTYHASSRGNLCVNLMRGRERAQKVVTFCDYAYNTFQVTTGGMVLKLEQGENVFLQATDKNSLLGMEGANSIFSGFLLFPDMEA
T1 sequence (P02747 29-245 partner): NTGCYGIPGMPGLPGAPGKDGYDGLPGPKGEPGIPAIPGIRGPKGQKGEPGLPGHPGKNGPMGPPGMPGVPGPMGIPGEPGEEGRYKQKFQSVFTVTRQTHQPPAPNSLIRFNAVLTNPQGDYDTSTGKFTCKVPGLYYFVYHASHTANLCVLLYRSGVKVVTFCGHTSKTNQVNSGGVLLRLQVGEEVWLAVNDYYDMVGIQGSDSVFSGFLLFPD

| Compound | success in the treatment of hereditary angioneurotic edema [1] | anticomplementary effect (complement system) | further results |
| --- | --- | --- | --- |
| NC[C@H]1CC[C@H](C(=O)O)CC1 [tranexamic acid] | used with success in the treatment of hereditary angioneurotic edema | – | – |
| pentosan-polysulfoester | – | – | anticomplementary activity on human serum, as judged by the reduction in total hemolytic complement activity (human serum complement): anticomplementary activity on human serum, both in vitro and in vivo |
| Nc1ccc2cc(S(=O)(=O)[O-])cc(O)c2c1N=Nc1ccc(NC(=O)Nc2ccc(N=Nc3c(N)ccc4cc(S(=O)(=O)[O-])cc(O)c34)c(S(=O)(=O)[O-])c2)cc1S(=O)(=O)[O-].[Na+].[Na+].[Na+].[Na+] [chlorazol fast pink, 3,3'-ureylenebis[6-(2-amino-8-hydroxy-6-sulfo-1-naphthylazo)benzenesulfonic acid], tetrasodium salt] | – | anticomplementary effect | – |
| O=S(=O)(O)OC[C@H]1O[C@@H](OC[C@H]2O[C@H](OC[C@H]3O[C@H](OS(=O)(=O)O)[C@H](OS(=O)(=O)O)[C@@H](OS(=O)(=O)O)[C@@H]3OS(=O)(=O)O)[C@H](OS(=O)(=O)O)[C@@H](OS(=O)(=O)O)[C@H]2OS(=O)(=O)O)[C@H](OS(=O)(=O)O)[C@@H](OS(=O)(=O)O)[C@@H]1O[C@H]1O[C@H](COS(=O)(=O)O)[C@@H](O[C@H]2O[C@H](COS(=O)(=O)O)[C@@H](OS(=O)(=O)O)[C@H](OS(=O)(=O)O)[C@H]2OS(=O)(=O)O)[C@H](OS(=O)(=O)O)[C@H]1OS(=O)(=O)O [(glc →1α,4)2 glc →1β,6 gal →1α,6 heptadecakis (H-sulfate), h] [(Glc 1α,4)2 glc 1β,6 gal 1α,6 glc heptadecakis (H-sulfate) heptadecasodium salt] | – | – | C1 026* Wells (activated human C1): +9 Wells; C-Late 035* Wells [2]: +2 Wells; Shunt Inhibition 036* Wells [3]: +6 Wells |
| NCCCCCC(=O)O [epsilon-aminocaproic acid] | used with success in the treatment of hereditary angioneurotic edema | – | – |
| heparin | – | anticomplementary effect | – |
